# Active and inactive are the calls of the source.
# Columns and labels:
# [1] = Luminescence Cell-Based Dose Response HTS to Identify Activators of Luciferase Translation or Activity in H4 […] Cells. [Related pubchem assays: 1829 (Project Summary), 1814 (Primary HTS)]; assay type: functional
# [2] = test system: H4; experiment: Luminescence Cell-Based Dose Response HTS to Identify Activators of 5'UTR Stem-Loop Driven Prion Protein mRNA Translation in H4 Neuroglioblastoma Cells. [Related pubchem assays: 1829 (Project Summary), 1814 (Primary HTS)]; assay type: functional; conditions: Homo sapiens
# [3] = target: T1, Protein skinhead-1 (Caenorhabditis elegans, UniProt P34707); assay type: functional
# T1 sequence (P34707 whole entry): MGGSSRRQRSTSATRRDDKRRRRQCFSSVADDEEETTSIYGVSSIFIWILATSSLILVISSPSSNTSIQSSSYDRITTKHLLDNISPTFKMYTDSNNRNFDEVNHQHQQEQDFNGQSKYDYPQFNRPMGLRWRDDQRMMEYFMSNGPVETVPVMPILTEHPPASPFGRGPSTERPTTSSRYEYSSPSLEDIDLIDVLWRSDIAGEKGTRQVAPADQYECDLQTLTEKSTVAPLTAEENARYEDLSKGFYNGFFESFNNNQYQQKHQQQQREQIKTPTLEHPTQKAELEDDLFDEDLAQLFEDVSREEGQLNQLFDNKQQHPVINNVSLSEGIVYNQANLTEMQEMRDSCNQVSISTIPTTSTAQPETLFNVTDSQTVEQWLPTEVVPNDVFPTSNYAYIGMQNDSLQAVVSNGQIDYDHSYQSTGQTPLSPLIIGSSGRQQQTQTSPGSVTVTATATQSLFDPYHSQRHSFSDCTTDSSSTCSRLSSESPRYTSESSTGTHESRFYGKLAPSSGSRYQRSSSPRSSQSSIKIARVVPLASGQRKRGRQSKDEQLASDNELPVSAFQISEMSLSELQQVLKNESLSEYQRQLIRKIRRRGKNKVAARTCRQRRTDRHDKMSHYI
# [4] = target: T2, Calpain-2 catalytic subunit (Sus scrofa, UniProt P43367); experiment: pig calpain II inhibitor potency, dose response, biochemical, fluorogenic peptide substrate (AID 1420); assay type: functional
# T2 sequence (P43367 whole entry): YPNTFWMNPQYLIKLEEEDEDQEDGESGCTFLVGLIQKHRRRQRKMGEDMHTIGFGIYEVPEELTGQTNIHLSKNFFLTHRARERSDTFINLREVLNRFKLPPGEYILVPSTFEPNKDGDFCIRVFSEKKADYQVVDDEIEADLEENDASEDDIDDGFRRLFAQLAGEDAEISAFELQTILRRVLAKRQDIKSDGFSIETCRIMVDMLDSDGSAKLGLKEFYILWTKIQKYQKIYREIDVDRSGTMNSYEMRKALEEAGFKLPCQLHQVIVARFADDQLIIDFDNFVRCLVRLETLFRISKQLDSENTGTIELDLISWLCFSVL
# [5] = growth suppression of PTEN-null colon cells, dose response, cell-based, HCT116 PTEN knockout (AID 1047); assay type: functional;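 also: HCT116 colon tumor cells with PTEN knocked out; cells exposed to compound for 60 hours before readout; potency for loss of cell viability measured by luminescence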
# [6] = growth suppression of beta-catenin-knockout colon cells, dose response, cell-based, HCT116, human colon tumor (AID 1045); assay type: functional;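 also: HCT116 colon tumor cells with beta catenin knocked out; cells exposed to compound for 60 hours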
# [7] = Luminescence Cell-Based Dose Retest to Confirm Inhibitors of Cancer Stem Cells. [Related pubchem assays (depositor defined):AID2717, AID2721]; assay type: functional; conditions: Homo sapiens
# [8] = cells; assay type: functional, cell-based
# [9] = cells; assay type: functional, cell-based; remark: listed apart in the source
# [10] = target: FAD-linked sulfhydryl oxidase ALR (Homo sapiens, UniProt P55789); experiment: inhibitors of human ALR sulfhydryl oxidase, dose response, biochemical, H2O2 detection, luminescence, cherry-pick (AID 493248)
# Chain of FAD-linked sulfhydryl oxidase ALR (P55789 whole entry): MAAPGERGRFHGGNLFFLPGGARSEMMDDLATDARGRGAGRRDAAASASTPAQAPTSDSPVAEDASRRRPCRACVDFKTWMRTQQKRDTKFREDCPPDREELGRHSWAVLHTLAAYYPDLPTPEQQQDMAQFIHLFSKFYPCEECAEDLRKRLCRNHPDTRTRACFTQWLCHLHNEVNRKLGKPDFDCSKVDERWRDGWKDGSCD
# [11] = HEp-2 cell cytotoxicity, dose response, cytotoxicity control for RSV inhibitor project, HTS (AID 2410); assay type: functional; conditions: human respiratory syncytial virus
# [12] = target: Cytochrome P450 2C19 (Homo sapiens, UniProt P33261); experiment: Cytochrome panel assay with activity outcomes. Panel member name: p450-cyp2c19 Compounds with AC50 equal or less than 10 uM are considered active; assay type: functional; conditions: read-out: AC50
# Chain of Cytochrome P450 2C19 (P33261 whole entry): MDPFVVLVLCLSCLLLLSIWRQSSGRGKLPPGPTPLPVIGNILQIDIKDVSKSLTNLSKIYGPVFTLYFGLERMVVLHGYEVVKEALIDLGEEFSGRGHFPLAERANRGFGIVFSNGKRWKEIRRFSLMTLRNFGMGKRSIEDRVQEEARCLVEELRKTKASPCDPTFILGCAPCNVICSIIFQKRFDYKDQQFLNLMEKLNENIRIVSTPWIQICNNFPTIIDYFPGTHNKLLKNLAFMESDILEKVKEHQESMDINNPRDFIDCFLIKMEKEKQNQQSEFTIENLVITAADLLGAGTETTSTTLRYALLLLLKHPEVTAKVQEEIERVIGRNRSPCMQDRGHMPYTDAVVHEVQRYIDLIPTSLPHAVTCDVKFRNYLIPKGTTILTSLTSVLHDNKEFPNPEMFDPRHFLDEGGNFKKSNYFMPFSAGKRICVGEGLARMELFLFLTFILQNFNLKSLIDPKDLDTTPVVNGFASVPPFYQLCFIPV
# [13] = inhibitors of intracellular T. cruzi replication, confirmation, NIH3T3 host cells, beta-gal luminescence (AID 2044); assay type: functional, cell-based;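 also: intracellular parasites grown in NIH/3T3 mouse fibroblasts as host cells; luminescent beta-galactosidase reporter signal from transgenic T. cruzi replicating inside host cells; inhibitors lower the luminescence signal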
# [14] = microbe, parasite or virus in culture; assay type: functional; conditions: Mycobacterium tuberculosis
# [15] = cytotoxicity toward NIH3T3 fibroblasts, dose response, counter-screen, cell-based, ATP luminescence, mouse fibroblasts (AID 2010); assay type: functional;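 also: cells exposed to compound for about 90 hours before reading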
# [16] = test system: INS1; experiment: beta cell apoptosis inhibitors, cytokine rescue, dose response, luminescence, retest (AID 449756); assay type: functional, cell-based; conditions: Rattus norvegicus;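 also: cell death triggered by IL-1 beta plus TNF-alpha plus IFN-gamma mixture; protective hits raise ATP signal compared with cytokine alone wells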
# [17] = target: Paired box protein Pax-8 (Homo sapiens, UniProt Q06710); experiment: inhibitors of PAX8-driven TPO luciferase reporter, dose response, RMG-I cells, cherry-pick (AID 687027); assay type: functional, cell-based;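 also: luciferase reporter driven by Pax8 target thyroperoxidase promoter measured by SteadyGlo luminescence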
# Chain of Paired box protein Pax-8 (Q06710 whole entry): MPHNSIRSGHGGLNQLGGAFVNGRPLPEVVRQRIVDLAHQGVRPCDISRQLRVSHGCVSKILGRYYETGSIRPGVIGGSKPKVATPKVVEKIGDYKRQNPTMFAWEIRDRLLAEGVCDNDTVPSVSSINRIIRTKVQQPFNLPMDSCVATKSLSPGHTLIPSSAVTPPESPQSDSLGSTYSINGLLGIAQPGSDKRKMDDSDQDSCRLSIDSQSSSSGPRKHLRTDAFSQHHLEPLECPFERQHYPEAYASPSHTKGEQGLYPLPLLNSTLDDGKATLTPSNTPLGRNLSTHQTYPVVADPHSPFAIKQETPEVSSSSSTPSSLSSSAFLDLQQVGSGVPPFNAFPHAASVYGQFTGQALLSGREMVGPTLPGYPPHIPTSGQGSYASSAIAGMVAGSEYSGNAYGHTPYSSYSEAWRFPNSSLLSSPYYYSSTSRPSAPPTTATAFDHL
# [18] = target: T3, Heat shock factor protein 1 (Mus musculus, UniProt P38532); experiment: inhibition of MG132-induced HSE-luciferase signal, confirmation, cell-based, NIH3T3, luminescence, dose retest (AID 2382); assay type: functional;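 also: NIH3T3 fibroblasts with HSF1-driven luciferase reporter stressed by proteasome inhibitor MG132; luminescence from HSF1-driven luciferase expression after 8 hours of MG132 stress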
# T3 sequence (P38532 whole entry): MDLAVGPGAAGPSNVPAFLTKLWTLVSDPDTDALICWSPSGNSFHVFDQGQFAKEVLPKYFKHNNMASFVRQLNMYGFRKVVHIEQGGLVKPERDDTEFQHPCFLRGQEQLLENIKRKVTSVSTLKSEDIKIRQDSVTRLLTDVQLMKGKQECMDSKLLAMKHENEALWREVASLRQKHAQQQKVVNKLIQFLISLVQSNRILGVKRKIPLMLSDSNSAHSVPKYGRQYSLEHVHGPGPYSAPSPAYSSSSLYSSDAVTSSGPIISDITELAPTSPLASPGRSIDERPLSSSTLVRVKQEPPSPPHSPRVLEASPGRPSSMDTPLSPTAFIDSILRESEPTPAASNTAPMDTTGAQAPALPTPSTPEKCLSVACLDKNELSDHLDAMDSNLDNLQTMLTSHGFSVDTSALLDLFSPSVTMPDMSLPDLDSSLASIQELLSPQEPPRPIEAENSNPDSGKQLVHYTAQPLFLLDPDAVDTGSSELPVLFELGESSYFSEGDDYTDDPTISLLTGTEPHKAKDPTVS
# [19] = P. falciparum Dd2 growth inhibitors, dose response, SYBR Green, cherry-picked samples (AID 1159567); assay type: functional, cell-based
smiles,measurement,setting,value
Cc1c(C(=O)/C=C/c2cccs2)oc2ccc(F)cc12,EC50,[1],0.139 µM (active)
same,EC50,[2],34.1 µM (inconclusive)
same,IC50,[3],> 100 µM (inactive)
CC(C)Oc1cccc(C(=O)Nc2ccc(CN3CCOCC3)cc2)c1,IC50,[3],31.1 µM (active)
CN(CC(=O)Nc1ccc(N2CCOCC2)cc1)Cc1cc(=O)n2ccsc2n1,IC50,[4],< 0.4 µM (not active)
O=C(NC(c1ccc(Cl)cc1)c1c(O)ccc2ccccc12)c1ccccc1 (stereo not drawn),EC50,[5],7.75 µM (active)
same,EC50,[6],8.69 µM (active)
same,AC50,[7],1.23 µM (active)
C#CCN1C(=O)S/C(=C/C=C/c2ccc(N(C)C)cc2)C1=O,IC50,[3],> 100 µM (inactive)
FC(F)(F)c1ccc(-c2n[nH]c(S)n2)cc1,EC50,[8],> 350 µM (not active)
same,EC50,[9],> 350 µM (not active)
same,AC50,[10],0.248 µM (active)
C=CCn1c(Sc2nc(C)cs2)nc2c1c(=O)[nH]c(=O)n2C,CC50,[11],32.4 µM (active)
same,IC50,[4],> 50 µM (not active)
CC(=O)Nc1ccc(NC(=O)CC2Nc3cccc4cccc(c34)NC2=O)cc1 (stereo not drawn),AC50,[10],7.99 µM (active)
same,AC50,[12],39.8 µM (inconclusive)
CCN1CCN(CC(=O)Nc2sc3c(c2C#N)CCC(C)C3)CC1 (stereo not drawn),EC50,[5],15.8 µM (active)
same,EC50,[6],17.9 µM (active)
N#Cc1c(Cl)cccc1Oc1ccc(S(=O)(=O)Nc2ccccc2)cc1,IC50,[4],> 50 µM (not active)
Clc1ccccc1-c1nnc2sc(-c3cccs3)nn12,IC50,[4],2.83 µM (not active)
O=C(Nc1ccccc1NC(=O)NC1CCCCC1)NC1CCCCC1,EC50,[5],15.1 µM (active)
same,EC50,[6],17.8 µM (active)
CC(=O)c1ccc(S(=O)(=O)Nc2cccc(S(=O)(=O)NC3=NCCC3)c2)cc1,AC50,[10],> 100 µM (inactive)
CN(CCCNC(=O)c1cc2c(Cl)nc3ccccc3c2s1)Cc1ccccc1,EC50,[13],0.771 µM (active)
same,CC50,[14],22.2 µM (active)
same,EC50,[15],> 60 µM (not active)
Cc1ccc(NC(=O)c2ccc(C(C)(C)C)cc2)cc1-n1cnnn1,IC50,[4],0.895 µM (not active)
CNc1ccccc1C(=O)OC(C)C(=O)Nc1ccc(Cl)cn1 (stereo not drawn),CC50,[14],25.3 µM (active)
CC(=O)c1ccc(-n2nncc2-c2ccc([N+](=O)[O-])cc2)cc1,IC50,[3],> 100 µM (inactive)
CCCCCc1cc(=O)oc2c(C(CCN3CCCCC3)c3ccc4c(c3)OCO4)c(OC)cc(OC)c12 (stereo not drawn),AC50,[7],6.41 µM (active)
same,AC50,[16],8 µM (active)
same,AC50,[17],13.4 µM (active)
CC(C)Cn1c(N)c(C(=O)COC(=O)/C=C/c2cccs2)c(=O)n(C)c1=O,IC50,[4],> 50 µM (not active)
CC1(c2ccc(O)cc2)NC(=O)N(c2ccccc2)N1 (stereo not drawn),AC50,[7],4.14 µM (active)
same,AC50,[10],0.015 µM (active)
O=C(/C=C/c1ccco1)Nc1nc(-c2ccccc2)cs1,IC50,[3],68.6 µM (inactive)
CCCCCn1cnc2sc(-c3ccccc3)cc2c1=O,CC50,[11],> 50 µM (active)
same,EC50,[1],2.43 µM (active)
same,EC50,[2],6.94 µM (active)
same,IC50,[3],> 100 µM (inactive)
O=C(/C=C/c1c(F)cccc1Cl)c1ccc(F)cc1,CC50,[14],> 40 µM (active)
OC(COc1cccc2ccccc12)CN1CCN(c2ccccc2Cl)CC1 (stereo not drawn),IC50,[4],3.82 µM (not active)
O=C(CNCc1ccccc1)Nc1ccc(Oc2ccccc2)cc1,IC50,[4],> 50 µM (not active)
O=C(CN1C(=O)c2ccccc2C1=O)Nc1ccc(-c2nc3ccccc3o2)cc1,IC50,[4],17.9 µM (not active)
COc1ccc(N2CCN(C(CNC(=O)C(C)C)c3ccc4c(c3)OCO4)CC2)cc1 (stereo not drawn),AC50,[10],4.01 µM (active)
Nc1ccccc1C#Cc1ccc2[nH]ccc2c1,AC50,[10],14.9 µM (active)
N#Cc1ccc(CN2CCN(C(=O)c3cc(C4CC4)nn3-c3ccccc3)CC2)cc1,IC50,[3],37.5 µM (active)
CC(=O)Nc1ccc2c(c1Br)Cc1ccccc1-2,IC50,[3],> 100 µM (inactive)
O=[N+]([O-])c1ccc(COc2ccc(CN3CCCCC3)cc2)cc1,IC50,[3],3.46 µM (active)
CCCCN1C[C@H](c2ccc(Br)cc2)[C@@H](CC(=O)Nc2ccc(Br)cc2)C1=O,IC50,[3],> 100 µM (inactive)
COC(=O)c1ccc2nc(-c3ccc(C)cc3)c(Cc3cccc(F)c3)n2c1,IC50,[3],> 100 µM (inactive)
COc1cccc(S(=O)(=O)N2CC[C@@H]3[C@H](CO)Nc4ccc(C5=CCCCC5)cc4[C@@H]32)c1,AC50,[17],10 µM (active)
C[C@@H]1CN([C@H](C)CO)C(=O)c2cc(NS(=O)(=O)c3ccc(F)cc3)ccc2O[C@@H](C)CCCCO[C@H]1CN(C)Cc1ccccc1,AC50,[17],17.2 µM (active)
C[C@@H]1CN([C@@H](C)CO)S(=O)(=O)c2ccc(C#Cc3ccc(F)cc3)cc2O[C@@H]1CN(C)C(=O)NC1CCCCC1,AC50,[17],8.43 µM (active)
C(=N\Nc1ccc2ccccc2n1)/c1ccc2c(c1)OCCO2,EC50,[18],< 0.16 µM (active)
same,CC50,[14],> 40 µM (active)
Cc1c(/C=N\NC(=O)c2ccc(F)cc2)cnn1C,AC50,[10],4.3 µM (active)
CC(/C=N/n1c(S)nnc1-c1ccccn1)=C\c1ccccc1,AC50,[10],5.86 µM (active)
C/C(=N/NC(=O)c1cc(-c2cccc([N+](=O)[O-])c2)[nH]n1)c1ccc(Cl)cc1,IC50,[4],13.6 µM (not active)
Cc1ccc2nc(C)cc(N/N=C/c3cccnc3)c2c1,AC50,[10],6.08 µM (active)
S=C(NCc1ccco1)N/N=C/c1ccccc1Cl,IC50,[4],2.44 µM (not active)
COc1ccc2c3c([nH]c2c1)[C@@H](CO)N(S(C)(=O)=O)CC31CCN(Cc2cccc(F)c2)CC1,AC50,[19],4.86 µM (active)
O=C(c1ccccn1)N1CC(=O)N2[C@H](CO)[C@@H](c3ccc(C#CCc4ccccc4)cc3)[C@@H]2C1,AC50,[19],6.31 µM (active)
N#C[C@@H]1[C@H](c2ccccc2/C=C/c2ccccc2)[C@H](CO)N1S(=O)(=O)c1ccc(F)cc1,AC50,[19],6.19 µM (active)
COc1cccc(CN2[C@@H]3CNC[C@H]2[C@H]3c2ccc(-c3ccccc3OC)cc2)c1,AC50,[19],5.81 µM (active)
CCCC(=O)N1CC2(C1)CN(Cc1ccc(Cl)cc1)[C@H](CO)c1[nH]c3cc(OC)ccc3c12,AC50,[19],6.65 µM (active)
OC[C@H]1CC[C@@H]2O[C@H](CCc3ccc(-c4ccc(F)cc4)cc3)[C@H](n3cc(C4CC4)nn3)C[C@@H]2O1,AC50,[19],5 µM (active)
CCNC(=O)c1cc2c(c(-c3cccc(-c4cc5ccccc5o4)c3)n1)[C@@H](CCO)N(C(=O)NC(C)C)C2,AC50,[19],6.29 µM (active)
